From patent US8476317B2, “N-alkylcarbonyl-amino acid ester compounds and their use for cough and pharyngitis” (priority 2011, dated 2013) come the findings set out here.

Where “and” joins values, the source holds several entries; their conditions need not be identical. Identical values can stand only once.

One data set deals with T1, TRP-M8 (Homo sapiens, UniProt Q7Z2W7).
T1 construct: expressed in transfected cells
Briefly: TRP-M8 receptor assay. Format: cell-based. As to conditions: for EC50: data from Prof. D. Bautista's laboratory. An excerpt:
Psychic events such as refreshment, soothing, cooling, irritation, itch, and pain cannot be verbalized by animals (animals cannot say “it feels cold”, “ouch”, or that “it itches”). […] Receptor assays, based on cells transfected with the genes for proteins associated with thermosensation (e.g., TRP-M8, TRP-A1, TRP-V1) may be used as a model of sensory processes and provide quantitative data. […] The in vitro assay gives no information on onset and offset of action, but yields information on comparative potency of the two enantiomers. Further evaluation of the pharmacological properties of the test substances were based on direct tests in human subjects.
Thus, the D-configuration of the α-carbon of Ala is an absolute requirement for therapeutic utility in cough. This separation of activity between the D- and L-enantiomers was also apparent in the TRP-M8 receptor assay (data from Prof. D. Bautista's laboratory at the University of California at Berkeley). […] Thus, in an equal mixture (racemic) of D-Ala and L-Ala enantiomers, it is likely that ˜97% of the anti-cough activity would be contributed by the D-enantiomer (of Formula 1).

The next data set deals with philtrum skin. Briefly: Cooling on facial (philtrum) skin, ointment. Type of data set: in vivo, human. The note with it: for skin or eye irritancy: in vivo; for Philtrum Skin (min), duration of cooling: 5 mg/ml in Aquaphor ointment. An excerpt:
A reliable place for topical application is the skin above the upper lip (above the vermilion border of the lips), on the philtrum, lateral to the philtrum until the nasolabial folds, and on the lower nostrils (subnasale). This part of the face is known to be densely innervated with cold receptors, second only to the surfaces of the eyeball and anogenitalia. At this locus, tingling, cool and cold sensations in the skin may be experienced and rated for time of onset and intensity.
The intervals for recording sensations are 5 to 10 minutes, until two successive zeroes are obtained. The results (shown in FIG. 1) are averaged values of 4 to 6 separate trials in the same individual. The data are plotted using SigmaPlot® (Systat Software, Point Richmond Calif.) and a smoothing function with a negative exponential was used for analysis and statistical fit of the results. Confirmatory trials of cooling action of the long-acting NACE compounds were obtained in 2 to 4 individuals but not quantified for some because of the large number of chemicals that were evaluated.
The onset of drug action is taken as the time to reach 2 units of coolness intensity, and offset of drug action is the time when coolness intensity drops below 2, after previously surpassing 2 units. The duration of cooling action is defined as the offset time minus the onset time. […] The quality of the sensation is noted, for example, as pure refreshing coolness, or if the sensation is accompanied by irritation (stinging or burning). The quality of the sensation is not rated for intensity.
For bioassay on the skin, approximately 30 mg was stirred and dissolved in 3 g of warm liquid Aquaphor® ointment to a yield a 40 mM (˜1% wt/vol) ointment. The exact amount was adjusted so that the molar equivalent was about 35 to 40 mM. After cooling, 40 to 70 mg of the solid ointment was placed on the tip of a plastic stick and applied to the skin above the upper lip, on the philtrum, and lateral to the philtrum, up to the nasolabial folds, of test subjects and the onset and duration of cooling sensations noted.
The intervals for recording sensations were 5 to 10 minutes, until two successive zeroes were obtained. The results (shown in FIG. 1) are averaged values of 4 to 6 separate trials in the same individual. The data are plotted using SigmaPlot® (Systat Software, Point Richmond, Calif., USA) and a smoothing function with a negative exponential was used for analysis and statistical fit of the results.
The onset of drug action was taken as the time to reach 2 units of coolness intensity, and offset of drug action was the time when coolness intensity drops below 2, after previously surpassing 2 units. The duration of cooling action was defined as the offset time minus the onset time. […] The quality of the sensation was also noted: such as pure refreshing coolness, or if the sensation was accompanied by irritation (stinging or burning). The quality of the sensation was not rated for intensity.
In the results of FIG. 1, the test compounds were singly applied to the skin above the upper lips as a ˜1% wt/vol (10 mg/ml) ointment. Subsequently, for the results shown in Table 3, the test dose on the philtrum was reduced to a 0.5% wt/vol (5 mg/ml) ointment. The reason for choosing a lower dose was to increase the number of trials per individual and to have a reduced chance of substances accumulating in the skin.

In the next data set the test system is oral cavity / oropharynx. Briefly: Cooling in oral cavity after application on dorsal surface of tongue. Type of data set: in vivo, human. As to conditions: dose of 1 to 2 mg, normal subjects. The procedure: The subject is instructed to close and hold the substance in the mouth for at least 10 seconds and not to swallow. The description of sensations is then recorded at 5 to 10 minute intervals.
The compounds of Formula 1 are white crystalline solids at room temperatures. These compounds were tested as the pure powder (>95% purity, by HPLC analysis), or mixed 1:1 with powdered or granulated sugar. The test substances were applied at 2 to 5 mg on the mid-point of the dorsal surface of the tongue using a metal spatula or a plastic applicator. After depositing the test substance on the tongue, the subject was instructed to keep the mouth closed and allow the fluids of the mouth to inter-mix with the test substance and to distribute it to the back of the mouth (oropharynx). The presence and duration of subjective sensations from the mouth was then recorded.

T1 sequence (Q7Z2W7 whole entry, species assumed): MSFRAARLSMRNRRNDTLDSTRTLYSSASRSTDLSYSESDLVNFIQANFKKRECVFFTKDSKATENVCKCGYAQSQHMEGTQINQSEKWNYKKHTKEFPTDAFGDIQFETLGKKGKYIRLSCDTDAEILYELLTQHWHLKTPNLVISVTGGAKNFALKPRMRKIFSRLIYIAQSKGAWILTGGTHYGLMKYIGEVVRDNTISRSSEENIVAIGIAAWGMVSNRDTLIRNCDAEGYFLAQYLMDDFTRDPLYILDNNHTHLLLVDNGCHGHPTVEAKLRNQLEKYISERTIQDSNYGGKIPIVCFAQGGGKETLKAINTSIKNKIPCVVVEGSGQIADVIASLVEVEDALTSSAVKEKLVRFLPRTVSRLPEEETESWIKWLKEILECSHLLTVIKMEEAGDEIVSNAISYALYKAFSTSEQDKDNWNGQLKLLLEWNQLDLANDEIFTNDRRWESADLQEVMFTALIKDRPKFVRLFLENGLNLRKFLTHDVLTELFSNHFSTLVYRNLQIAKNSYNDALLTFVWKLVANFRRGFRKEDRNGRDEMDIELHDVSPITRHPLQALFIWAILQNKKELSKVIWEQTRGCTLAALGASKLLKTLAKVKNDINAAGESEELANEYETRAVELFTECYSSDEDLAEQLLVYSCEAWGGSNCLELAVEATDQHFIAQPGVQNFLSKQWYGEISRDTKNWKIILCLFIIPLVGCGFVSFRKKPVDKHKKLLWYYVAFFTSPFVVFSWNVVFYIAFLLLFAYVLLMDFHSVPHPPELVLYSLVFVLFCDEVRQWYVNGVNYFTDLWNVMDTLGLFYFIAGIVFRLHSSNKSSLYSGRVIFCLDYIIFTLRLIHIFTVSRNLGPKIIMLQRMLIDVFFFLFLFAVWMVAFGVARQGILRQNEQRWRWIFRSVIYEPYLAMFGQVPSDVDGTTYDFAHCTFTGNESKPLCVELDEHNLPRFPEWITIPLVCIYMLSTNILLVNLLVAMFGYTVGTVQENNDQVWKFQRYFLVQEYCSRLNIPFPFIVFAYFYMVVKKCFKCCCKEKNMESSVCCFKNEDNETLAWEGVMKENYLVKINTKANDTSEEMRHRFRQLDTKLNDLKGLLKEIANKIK

In the case of `CCOC(=O)[C@@H](C)NC(=O)[C@@H]1C[C@H](C)CC[C@H]1C(C)C` [D-Ala-OEt, (R)-2-[((1R,2S,5R)-2-isopropyl-5-methyl-cyclohexanecarbonyl)-amino]-propionic acid ethyl ester], the “difference of EC50, D-Ala-OEt versus L-Ala-OEt” value on TRP-M8 (TRP-M8 receptor assay) was determined as 37 fold. Also, the EC50 on TRP-M8 was 480 nM and 500 nM. In the data set with philtrum skin, the “skin or eye irritancy” value is given as “without skin or eye irritancy”. Moreover, the “duration of cooling sensations on the tongue” value in the data set on oral cavity / oropharynx was “about 30 minutes”.
For the compound `COC(=O)[C@@H](C)NC(=O)[C@@H]1C[C@H](C)CC[C@H]1C(C)C` [D-Ala-OMe, (R)-2-[((1R,2S,5R)-2-isopropyl-5-methyl-cyclohexanecarbonyl)-amino]-propionic acid methyl ester], in the data set on philtrum skin, the “Philtrum Skin (min), duration of cooling” value worked out at 77 min and the “skin or eye irritancy” value is listed as “without skin or eye irritancy”. In the data set with oral cavity / oropharynx, the “duration of cooling sensations on the tongue” value was “about 30 minutes”.
`CCOC(=O)C(C)NC(=O)[C@@H]1C[C@H](C)CC[C@H]1C(C)C` (stereo partly drawn) [L-Ala-OEt]: the EC50 at TRP-M8 worked out at 18000 nM. The “Philtrum Skin (min), duration of cooling” value in the data set on philtrum skin is recorded as 34 min.

The EC50 is the midpoint of the concentration-response curve. Read a low EC50 as a more potent agent.
